4 compounds from patent EP1290011B1 (Oncopeptides AB, priority 2000, dated 2001) can be followed below.

Data set [1] deals with NCI-H157. Description: cells. Type of data set: cell-based. The settings on record: Homo sapiens, NCI-H157.
Data set [2] deals with U-1906E. Description: cells. Type of data set: cell-based.
Data set [3] has as its system NCI-H611. Description: cells. Type of data set: cell-based.
The test system of data set [4] is U1906L. Description: cells. Type of data set: cell-based.
The test system of data set [5] is U-1568. Description: cells. Type of data set: cell-based.
The subject of data set [6] is NCI-H23. Description: cells. Type of data set: cell-based. The settings on record: Homo sapiens, NCI-H23.
Data set [7] relates to U1690. Description: cells. Type of data set: cell-based.
In data set [8] the test system is U-1810. Description: cells. Type of data set: cell-based. The settings on record: U-1810.
Data set [9] concerns NCI-H125. Description: cells. Type of data set: cell-based. As to conditions: Homo sapiens, NCI-H125.
The test system of data set [10] is solid tumour fresh human tumour specimens (PHTC). Description: cells. As to conditions: 72 h, read-out: Tumour cell survival index % Solid.
Data set [11] deals with U-1752. Description: cells. Type of data set: cell-based.
In data set [12] the test system is U1285. Description: cells. Type of data set: cell-based.
In data set [13] the test system is CEM/R. Description: cells. Type of data set: cell-based, human.
Data set [14] relates to panel of ten human tumour cell lines. Description: cells. Type of data set: cell-based. The settings on record: read-out: MEAN IC50.
The subject of data set [15] is 8226Dox40. Description: cells. Type of data set: cell-based, human.
Data set [16] has as its system hematological fresh human tumour specimens (PHTC). Description: cells. As to conditions: 72 h, read-out: Tumour cell survival index % Hematological.
Data set [17] has as its system CEM/S. Description: cells. Type of data set: cell-based, human.
The subject of data set [18] is 8226S. Description: cells. Type of data set: cell-based, human.
The test system of data set [19] is H69. Description: cells. Type of data set: cell-based, human.
Data set [20] has as its system ACHN. Description: cells. Type of data set: cell-based, human. The settings on record: ACHN.
Data set [21] deals with H69AR. Description: cells. Type of data set: cell-based, human. As to conditions: H69AR.
Data set [22] concerns 8226LR5. Description: cells. Type of data set: cell-based, human.
In data set [23] the test system is U937vcr. Description: cells. Type of data set: cell-based, human.
Data set [24] has as its system U937gtb. Description: cells. Type of data set: cell-based, human.
Data set [25] deals with primary cultures of human tumor cells from patients (PHTC), Total. Description: FMCA in PHTC cultures, Table 4, total. The settings on record: 4 µM; n=19-31; 4320 min.
The subject of data set [26] is Adeno-carcinoma. Description: Cytotoxic activity in different tumour models. Type of data set: cell-based, human. As to conditions: Number 5.
Data set [27] deals with Ovarian carcinoma. Description: Cytotoxic activity in different tumour models. Type of data set: cell-based, human. As to conditions: Number 8.
Data set [28] has as its system Corpus cancer. Description: Cytotoxic activity in different tumour models. Type of data set: cell-based, human. As to conditions: Number 4.
In data set [29] the test system is NSC Lung cancer. Description: Cytotoxic activity in different tumour models. Type of data set: cell-based, human. As to conditions: Number 8.
The subject of data set [30] is Prostate cancer. Description: Cytotoxic activity in different tumour models. The settings on record: Number 1. Type of data set: cell-based, human.
Data set [31] has as its system PHTC samples from 9 patients with hematological and 18 patients with solid tumours. Description: Circumvention of melphalan resistance: FMCA classification of PHTC samples as LDR, IDR, EDR. Type of data set: cell-based, human. As to conditions: tested at 4 µM; for Number of samples EDR / Number of samples (%) EDR: Extreme drug resistance; for Number of samples (%) EDR / Number of samples (%) IDR / Number of samples (%) LDR: percent of samples; for Number of samples IDR / Number of samples (%) IDR: Intermediate drug resistance; for Number of samples LDR / Number of samples (%) LDR: Low drug resistance.

Data set [32] relates to Solid tumours (PHTC). Description: FMCA in PHTC cultures, Table 4, solid. As to conditions: 4 µM; n=12-20; 4320 min.
Data set [33] relates to Breast cancer. Description: Cytotoxic activity in different tumour models. Type of data set: cell-based, human. The settings on record: Number 4.
For data set [34], the system named is Hematological tumours (PHTC). Description: FMCA in PHTC cultures, Table 4, hematological. The settings on record: 4 µM; n=7-11; 4320 min.
Setting [35] is: CEM/R, 72 hours incubation, read-out: IC50.
The mark [36] stands for this setting: 8226Dox40, doxorubicin resistance, 72 hours incubation, read-out: IC50.
[37] abbreviates: CEM/S, 72 hours incubation, read-out: IC50.
Where [38] appears, read: 8226S, myeloma, 72 hours incubation, read-out: IC50.
Where [39] appears, read: H69, small cell lung cancer, 72 hours incubation, read-out: IC50.
Setting [40] is: primary resistant renal carcinoma, 72 hours incubation, read-out: IC50.
Setting [41] is: doxorubicin resistance, 72 hours incubation, read-out: IC50.
The mark [42] stands for this setting: 8226LR5, melphalan resistance, 72 hours incubation, read-out: IC50.
Where [43] appears, read: U937vcr, vincristine resistance, 72 hours incubation, read-out: IC50.
Setting [44] is: U937gtb, lymphoma, 72 hours incubation, read-out: IC50.

Read-outs that look alike come from different tables or passages of the source.

As to `CC(=O)O[C@@]12CO[C@@H]1C[C@H](O)[C@@]1(C)C(=O)[C@H](O)C3=C(C)[C@@H](OC(=O)[C@H](O)[C@@H](NC(=O)OC(C)(C)C)c4ccccc4)C[C@@](O)([C@@H](OC(=O)c4ccccc4)[C@H]21)C3(C)C` [Docetaxel, docetaxel], the IC50 was found to be 100 nM in data set [1]; 100 nM in data set [2]; 1100 nM in data set [3]; 100 nM in data set [4]; 5940 nM in data set [5]; 1500 nM in data set [6]. Further, the IC50 in data set [7] was 7700 nM; in data set [8] it was 100 nM; in [9], 160 nM; in [11], 460 nM; in data set [12] it was 100 nM. Also, the viability at 6.2 µM in data set [10] was determined as 67%.

In the case of `COc1cccc2c1C(=O)c1c(O)c3c(c(O)c1C2=O)C[C@@](O)(C(=O)CO)C[C@@H]3O[C@H]1C[C@H](N)[C@H](O)[C@H](C)O1` [Doxorubicin, doxorubicin], the IC50 in data set [1] came to 200 nM; in data set [2], 440 nM; in data set [3], 183000 nM; in [4], 920 nM; in data set [13] (Homo sapiens, 72 h) it was 1310 nM; in data set [14] (Homo sapiens) it was 3510 nM. Also, the IC50 is 4970 nM in data set [15] (Homo sapiens, 72 h); 183000 nM in data set [5]; 180 nM in data set [17] (Homo sapiens, 72 h); 130 nM in [18] (Homo sapiens, 72 h); 1660 nM in data set [19] (Homo sapiens, NCI-H69, 72 h); 140 nM in data set [6]. Besides, the IC50 in data set [20] (Homo sapiens, 72 h) worked out at 14200 nM; in data set [21] (Homo sapiens, 72 h), 11600 nM; in data set [7], 2210 nM; in data set [8], 22800 nM; in data set [22] (Homo sapiens, 72 h), 550 nM; in data set [9], 500 nM. The IC50 is 420 nM in data set [11]; 420 nM in data set [23] (Homo sapiens, 72 h); 520 nM in [12]; 110 nM in data set [24] (Homo sapiens, U-937/GTB, 72 h). The viability at 0.92 µM was determined as 29% in [16] and 97% in data set [10].

In the case of `CCOC(=O)[C@H](Cc1ccc(F)cc1)NC(=O)[C@H](Cc1ccc(N(CCCl)CCCl)cc1)NC(=O)[C@@H]1CCCN1.Cl` [Example J3, L-Prolinyl-L-melphalanyl-L-p-fluorophenylalanine ethyl ester hydrochloride], the “Tumour cell survival index (%) Total” value in data set [25] came out at 25.9%. In addition, the IC50 in data set [13] (setting [35]) is 20 nM; in [14] (mean over the ten cell lines), 1470 nM; in [15] (setting [36]), 5660 nM; in data set [17] (setting [37]), 60 nM; in data set [18] (setting [38]) it was 1510 nM; in data set [19] (setting [39]), 200 nM. Also, the IC50 in data set [20] (setting [40]) is 1720 nM; in [21] (setting [41]), 1360 nM; in [22] (setting [42]), 3520 nM; in data set [23] (setting [43]), 420 nM; in [24] (setting [44]), 230 nM. Moreover, the “Median response at 4.0 µM >50% reduction in tumour cell survival” value in data set [26], in data set [27], in data set [28], in data set [29], in [30] and in data set [33] was “Yes” throughout. Besides, the “Number of samples EDR” value in [31] is on record as 0 (0%). Moreover, in data set [31], the “Number of samples (%) EDR” value is listed as 0 (0%). Moreover, the “Number of samples IDR” value in data set [31] is listed as 4. For the same compound, the “Number of samples (%) IDR” value in data set [31] is reported as 15%. For the same compound, the “Number of samples LDR” value in data set [31] is recorded as 23. In addition, the “Number of samples (%) LDR” value in data set [31] came to 85%. The “Tumour cell survival index (%) Solid tumours” value in [32] amounted to 36.3%. Besides, in data set [34], the “Tumour cell survival index (%) Hematological tumours” value is given as 7%.

Consider `CC(C)OC(=O)[C@H](Cc1ccc(F)cc1)NC(=O)[C@@H](N)Cc1ccc(N(CCCl)CCCl)cc1.Cl` [JV28, L-Melphalanyl-L-p-fluorophenylalanine isopropyl ester hydrochloride], for which the “Tumour cell survival index (%) Total” value in [25] amounted to 30.4%. Also, the IC50 in [13] (setting [35]) was 40 nM; in [14] (mean over the ten cell lines), 410 nM; in data set [15] (setting [36]), 890 nM; in data set [17] (setting [37]), 60 nM; in data set [18] (setting [38]), 510 nM; in data set [19] (setting [39]), 50 nM. For the same compound, the IC50 in data set [20] (setting [40]) came out at 50 nM; in [21] (setting [41]), 370 nM; in data set [22] (setting [42]), 1880 nM; in data set [23] (setting [43]), 150 nM; in data set [24] (setting [44]), 100 nM. For the same compound, the “Median response at 4.0 µM >50% reduction in tumour cell survival” value in data set [26], in data set [27], in [29], in data set [30] and in data set [33] was “Yes” throughout. Besides, the “Number of samples EDR” value in data set [31] is listed as 1. Also, the “Number of samples (%) EDR” value in data set [31] came to 6%. Moreover, the “Number of samples IDR” value in [31] turned out to be 2. The “Number of samples (%) IDR” value in data set [31] amounted to 12%. The “Number of samples LDR” value in data set [31] stood at 14. Further, in [31], the “Number of samples (%) LDR” value worked out at 82%. The “Tumour cell survival index (%) Solid tumours” value in data set [32] is 44.2%. In addition, in data set [34], the “Tumour cell survival index (%) Hematological tumours” value is reported as 6.7%.

As a reminder, the IC50 is the concentration that gives 50% inhibition.
